Values quoted from earlier work in patent US20230364118A1, “RIBITOL TREATMENT” (priority 2020, published 2023).

Details: rabbits; cited from earlier work

Question: With `O=C[C@H](O)[C@H](O)[C@H](O)CO` [D-ribose] as the compound, how does the half-life read?
Answer: Its half-life is 14 to 24 min.
